Laboratory results as given in the Deep4Chem optical property database.
Blank lines part the entries; values can stand above or below the molecule they belong to.

Test: solvent given as SMILES

emission maximum (in CC#N): 417 nm
emission maximum (in CCO): 457 nm
SMILES: CC(=O)c1cc2c(cc1F)NC(C)(C)CC2=O

emission maximum (in CC#N): 475 nm
emission maximum (in CO): 493 nm
emission maximum (in ClCCl): 475 nm
SMILES: O=C1c2ccccc2-c2c(-c3cc(Cl)ccc3O)[nH]c(=O)n21

SMILES: CN(C)c1ccc(/C=C/c2cc[n+](CCC[n+]3ccc(/C=C/c4ccc(N(C)C)cc4)cc3)cc2)cc1
emission maximum (in CC1COC(=O)O1): 604 nm
emission maximum (in CC#N): 609 nm
emission maximum (in CC(C)=O): 608 nm
emission maximum (in CC(C)O): 594 nm
emission maximum (in CCO): 601 nm
emission maximum (in CN(C)C=O): 607 nm
emission maximum (in CO): 604 nm
emission maximum (in CS(C)=O): 610 nm
emission maximum (in ClC(Cl)Cl): 566 nm
emission maximum (in O): 597 nm
emission maximum (in c1ccncc1): 598 nm

emission maximum (in C1CCOC1): 417 nm
emission maximum (in C1COCCO1): 417 nm
emission maximum (in CC#N): 417 nm
emission maximum (in CC(C)O): 423 nm
emission maximum (in CCO): 428 nm
emission maximum (in CCOC(C)=O): 415 nm
emission maximum (in CN(C)C=O): 422 nm
emission maximum (in CO): 432 nm
emission maximum (in CS(C)=O): 424 nm
emission maximum (in O): 449 nm
SMILES: Cc1ccc(C2CC(c3ccc(O)cc3)=NN2c2ccc(S(N)(=O)=O)cc2)cc1 (stereo not drawn)

emission maximum (in C1CCOC1): 527 nm
SMILES: N#Cc1c(N2CCCCC2)cc(-c2ccc3ccccc3c2)c2c1-c1ccccc1C2=O

emission maximum (in CCO): 505 nm
SMILES: CCOC(=O)c1cc(C(=O)OCC)c2c(C)ccc(OC(=O)OC(C)(C)C)c2n1

emission maximum (in C1CCCCC1): 327 nm
SMILES: COc1ccc([Si](C)(C)C)c2ccccc12

emission maximum (in ClCCl): 577 nm
SMILES: N#Cc1cc(/C=C/c2ccc(/C=C/c3ccc(N(c4ccccc4)c4ccccc4)cc3)c(C#N)c2)ccc1/C=C/c1ccc(N(c2ccccc2)c2ccccc2)cc1

emission maximum (in ClCCl): 420 nm
SMILES: c1ccc2c(-c3c4ccccc4c(-c4ccc(-c5ccc(-n6c7ccccc7c7ccccc76)cc5)cc4)c4ccccc34)cccc2c1

SMILES: c1cc(-n2c3ccccc3c3ccccc32)c(-c2nc3ccccn3n2)c(-n2c3ccccc3c3ccccc32)c1
emission maximum (in Cc1ccccc1): 397 nm

emission maximum (in CO): 418 nm
SMILES: COc1ccc(-c2ccc3c(c2)nnn3C[C@H](N)C(=O)O)cc1

emission maximum (in ClCCl): 613 nm
SMILES: CC1=CC(C)=[N+]2C1=C(c1ccc(Br)cc1)c1c(C)cc(/C=C/c3ccc[nH]3)n1[B-]2(F)F

emission maximum (in ClCCl): 400 nm
SMILES: COc1ccc(-c2cnc(-c3ccccc3)o2)cc1OC

emission maximum (in ClC(Cl)Cl): 475 nm
SMILES: C[Si](C)(C)C#CC(C#C[Si](C)(C)C)=Cc1ccc(C=C(C#C[Si](C)(C)C)C#C[Si](C)(C)C)s1

emission maximum (in ClCCl): 527 nm
SMILES: O=[N+]([O-])c1ccc(C#Cc2ccc3ccc(C#Cc4ccc([N+](=O)[O-])cc4)cc3c2)cc1

emission maximum (in CCO): 410 nm
emission maximum (in CCOC(C)=O): 404 nm
emission maximum (in CN(C)C=O): 410 nm
emission maximum (in CO): 410 nm
emission maximum (in ClC(Cl)Cl): 408 nm
SMILES: COc1ccc2cc(-c3ccc(S(C)(=O)=O)cc3)oc(=O)c2c1

emission maximum (in ClC(Cl)Cl): 456 nm
SMILES: O=c1oc2ccccc2cc1-c1cn2ccccc2n1

SMILES: C1=[N+](c2ccccc2)[B-](c2ccccc2)(c2ccccc2)Oc2c1ccc1c3c(ccc21)C=[N+](c1ccccc1)[B-](c1ccccc1)(c1ccccc1)O3
emission maximum (in Cc1ccccc1): 602 nm
emission maximum (in ClCCl): 594 nm

SMILES: COCCC1=Cc2nc1ccc1[nH]c(cc1CCOC)c1nc(c(OC)cc3[nH]c2cc3CCOC)C(CCOC)=C1
emission maximum (in Cc1ccccc1): 690 nm

SMILES: Cc1ccc(-c2cc(-c3ccccc3)c(C#N)c(=S)[nH]2)cc1
emission maximum (in C1CCCCC1): 504 nm
emission maximum (in C1COCCO1): 506 nm
emission maximum (in CC#N): 488 nm
emission maximum (in CCCCO): 503 nm
emission maximum (in CCCO): 490 nm
emission maximum (in CCO): 462 nm
emission maximum (in CCOC(C)=O): 522 nm
emission maximum (in CCOCC): 524 nm
emission maximum (in CN(C)C=O): 502 nm
emission maximum (in ClC(Cl)(Cl)Cl): 508 nm

emission maximum (in ClC(Cl)Cl): 382 nm
SMILES: CC(C)(C)NC(=O)c1ccc2ccc3cccc4ccc1c2c34

emission maximum (in C1CCOC1): 487 nm
emission maximum (in CC#N): 502 nm
emission maximum (in ClC(Cl)Cl): 494 nm
emission maximum (in ClCCl): 496 nm
SMILES: COc1cc(/C=C/c2nc3ccccc3o2)c(OC)cc1/C=C/c1nc(C)nc(/C=C/c2cc(OC)c(/C=C/c3nc4ccccc4o3)cc2OC)n1

emission maximum (in CC#N): 390 nm
SMILES: Cc1sc(Cl)cc1-c1nc(-c2ccc(Cl)cc2)[nH]c1-c1cc(Cl)sc1C

SMILES: O=[N+]([O-])c1ccc(C2=Nc3sc(-c4ccccc4)n[n+]3[B-](F)(F)O2)cc1
emission maximum (in Cc1ccccc1): 409 nm

SMILES: CC(C)(C)c1ccc(-c2nc3c4ccc(-c5ccccc5)cc4c4cc(-c5ccccc5)ccc4c3n2-c2ccc(C(C)(C)C)cc2)cc1
emission maximum (in C1CCOC1): 389 nm
emission maximum (in C1COCCO1): 389 nm
emission maximum (in CC#N): 391 nm
emission maximum (in CCCCCC): 385 nm
emission maximum (in CCCCOCCCC): 386 nm
emission maximum (in CCN(CC)CC): 386 nm
emission maximum (in CCOC(C)=O): 388 nm
emission maximum (in CCOCC): 386 nm
emission maximum (in CN(C)C=O): 392 nm
emission maximum (in Cc1ccccc1): 388 nm
emission maximum (in ClC=C(Cl)Cl): 389 nm
emission maximum (in ClCCl): 390 nm

SMILES: CCC1(CC)c2cc(/C=C/c3ccc(/C=C/c4ccc5c(c4)C(CC)(CC)c4cc(N6c7ccccc7Sc7ccccc76)ccc4-5)cc3)ccc2-c2ccc(N3c4ccccc4Sc4ccccc43)cc21
emission maximum (in C1CCOC1): 434 nm
emission maximum (in CC#N): 457 nm
emission maximum (in CCCCCC): 455 nm
emission maximum (in Cc1ccccc1): 462 nm
emission maximum (in ClCCl): 435 nm

SMILES: CCC1(CC)c2cc(/C=C/c3cc(C#N)c(/C=C/c4ccc5c(c4)C(CC)(CC)c4cc(N6c7ccccc7Sc7ccccc76)ccc4-5)cc3C#N)ccc2-c2ccc(N3c4ccccc4Sc4ccccc43)cc21
emission maximum (in C1CCOC1): 514 nm
emission maximum (in CC#N): 610 nm
emission maximum (in CCCCCC): 518 nm
emission maximum (in Cc1ccccc1): 547 nm
emission maximum (in ClCCl): 520 nm

emission maximum (in ClC(Cl)Cl): 502 nm
SMILES: Cc1c2c(c(C)c3ccccc13)C1=CC3Nc4ccccc4NC3C=C12 (stereo not drawn)

emission maximum (in C1CCCCC1): 396 nm
SMILES: COc1ccc2c3c(c4ccc(OC)cc4c2c1)C(C)(C)c1ccc2ccccc2c1-3

emission maximum (in CC#N): 412 nm
emission maximum (in CO): 416 nm
emission maximum (in CS(C)=O): 430 nm
emission maximum (in ClC(Cl)Cl): 420 nm
SMILES: O=C1C=CC2=Cc3ccccc3B(O)N12

emission maximum (in C1CCCCC1): 400 nm
emission maximum (in CC#N): 504 nm
SMILES: Cc1ccc(/C=C/c2ccccc2-[n+]2cc([O-])on2)cc1

emission maximum (in CO): 656 nm
emission maximum (in CS(C)=O): 664 nm
emission maximum (in O): 663 nm
SMILES: CCCN1/C(=C/C=C(/C=C/C2=[N+](CCC)c3ccccc3C2(C)C)c2ccc([N+](=O)[O-])cc2)C(C)(C)c2ccccc21

SMILES: CCC1(CC)c2ccccc2-c2ccc(C#Cc3ccc4ccc5cccc6ccc3c4c56)cc21
emission maximum (in C1CCCCC1): 407 nm
emission maximum (in C1CCOC1): 410 nm
emission maximum (in CC#N): 408 nm
emission maximum (in CCOC(C)=O): 406 nm
emission maximum (in CN(C)C=O): 412 nm
emission maximum (in Cc1ccccc1): 412 nm
emission maximum (in ClC(Cl)Cl): 413 nm
emission maximum (in ClCCl): 412 nm

emission maximum (in C1CCOC1): 492 nm
SMILES: COc1cc2c(c(OC)c1OC)c1ccc3cccc4c5cccc6oc(=O)c2c(c65)c1c34

emission maximum (in ClCCl): 423 nm
SMILES: CCn1c2ccccc2c2cccc(N(c3ccccc3)c3ccccc3)c21

emission maximum (in ClCCl): 451 nm
emission maximum (in c1cc(-n2c3ccccc3c3ccccc32)cc(-n2c3ccccc3c3ccccc32)c1): 432 nm
SMILES: c1ccc(N(c2ccccc2)c2ccc(-c3ccc4c(c3)C3(c5cc(-c6ccc(N(c7ccccc7)c7ccccc7)cc6)ccc5-4)c4ccccc4N(c4ccccc4)c4ccccc43)cc2)cc1

emission maximum (in CS(C)=O): 572 nm
emission maximum (in ClCCl): 540 nm
SMILES: CCN(CC)c1ccc2c(c1)oc(=O)c1c(=O)oc3cc(Br)ccc3c12

emission maximum (in CO): 405 nm
SMILES: Oc1cc2ccc3cc(O)cc4ccc(c1)c2c34

emission maximum (in CCCCCC): 628 nm
emission maximum (in CCCCCCCCO): 636 nm
emission maximum (in CCOC(C)=O): 632 nm
emission maximum (in CN(C)C=O): 639 nm
emission maximum (in ClCCl): 631 nm
SMILES: CC1=CC(C)=[N+]2C1=Cc1c3ccccc3c(C#Cc3cccs3)n1[B-]2(F)F

emission maximum (in ClCCl): 364 nm
SMILES: Cc1cccc2cc(C)c3c4ccccc4[nH]c3c12

SMILES: Nc1nc(/C=C/c2ccc(N(c3ccccc3)c3ccccc3)cc2)cc(/C=C/c2ccc(N(c3ccccc3)c3ccccc3)cc2)n1
emission maximum (in Cc1ccccc1): 467 nm
emission maximum (in ClC(Cl)Cl): 526 nm

SMILES: COc1ccc(-c2nc(C(C)=O)c(C)o2)cc1
emission maximum (in CC#N): 347 nm
emission maximum (in CCO): 354 nm
emission maximum (in CCOC(C)=O): 347 nm
emission maximum (in CCOCC): 345 nm
emission maximum (in ClCCl): 351 nm

emission maximum (in CC#N): 673 nm
emission maximum (in ClC(Cl)Cl): 672 nm
SMILES: F[B-]1(F)n2c(-c3ccccc3)cc(-c3ccccc3)c2N=C2C(c3ccccc3)=CC(c3ccccc3)=[N+]21

emission maximum (in ClCCl): 420 nm
SMILES: COc1cc2c(cc1OC)C1=C[C@H](c3ccc(Cl)cc3)C3(C(C#N)=C(C#N)N1CC2)c1cc(Br)ccc1-c1ccc(Br)cc13

emission maximum (in ClCCl): 585 nm
SMILES: CC1=C(c2ccccc2)C(C)=[N+]2C1=C(c1c(-c3ccccn3)nc3ccccn13)c1c(C)c(-c3ccccc3)c(C)n1[B-]2(F)F

SMILES: CC1(C)c2ccccc2N(c2ccc3c(c2)Oc2ccccc2P3(=O)c2ccccc2)c2ccccc21 (stereo not drawn)
emission maximum (in Cc1ccccc1): 433 nm
emission maximum (in O=P(c1ccccc1)(c1ccccc1)c1ccccc1Oc1ccccc1P(=O)(c1ccccc1)c1ccccc1): 434 nm

emission maximum (in ClCCl): 540 nm
SMILES: CSc1nccc(/C=C/c2ccc(N(c3ccccc3)c3ccc(/C=C/c4ccnc(SC)n4)cc3)cc2)n1

emission maximum (in CO): 487 nm
SMILES: C1=CN2C[n+]3cccc(OCc4ccccc4)c3N=C2C(OCc2ccccc2)=C1

emission maximum (in ClCCl): 583 nm
SMILES: CCCCCCOc1cc(N(CC)CC)ccc1/C=C/C(=C(C#N)C#N)c1ccc2c(c1)c1ccccc1n2CC

emission maximum (in C1CCCCC1): 501 nm
emission maximum (in CC#N): 544 nm
emission maximum (in ClC(Cl)Cl): 522 nm
SMILES: O=C1Cc2cc3c(cc2CCCc2ccc(cc2)CCC3)CC(=O)Cc2ccc(c3nsnc23)C1

emission maximum (in ClCCl): 365 nm
SMILES: COc1cccc2cc(C)c3c4ccccc4[nH]c3c12

emission maximum (in C1CCCCC1): 455 nm
SMILES: N#Cc1cc(-c2ccccc2)c(N2c3ccccc3Oc3ccccc32)c(-c2ccccc2)c1
